Earlier results as cited in PMC2908260 (Journal of nuclear medicine : official publication, Society …, 2010).

Details: other ^18F-labeled octreotide analogues

## N^α-(1-deoxy-D-fructosyl)-N^ε-(2-[^18F]fluoropropionyl)-Lys^0-Tyr^3octreotate [[^18F]FP-Gluc-TOCA]
  log P: −1.70 ± 0.02
